Measured values reported in patent US11352338B2, “Substituted isoindolinones” (BioTheryX, Inc., priority 2018, dated 2022).

Tests used:
[1] = biological target: T1, Ikaros (Homo sapiens, UniProt Q13422+Q96SW2); assay: Western blot, degradation of cellular Ikaros in MV-4-11 cells; type: cell-based; conditions: MV4-11, tested at 1 μM, 6-8 hours, read-out: % Degradation compared to DMSO, Ikaros
T1 construct: endogenous in cells; host or cells: MV-4-11
Protocol: (§1) MV-4-11 cells were grown in RPMI 1640 media supplemented with 10% fetal bovine serum, streptomycin and penicillin.
(§2) Cells were cultured at approximately 10^6 cells per mL and incubated in DMSO or the indicated compounds for 6-8 hours. Whole cell extracts were prepared using RIPA lysis buffer according to manufacturer's protocol (Pierce). Briefly, 4×10^6 cells were washed once in PBS, the cell pellets were resuspended in RIPA lysis buffer and allowed to incubate for 15 minutes on ice. Cells debris was removed by centrifugation and the cleared whole cell lysates were transferred to new tubes for further analysis.
(§3) For Western blot analysis, whole cell protein extracts were separated on 4-12% SDS-polyacrylamide gels, transferred to nitrocellulose and probed with the indicated primary antibodies. Membranes were subsequently washed and probed with the appropriate IRDye secondary antibodies (LI-COR). The signal was detected using the Odyssey Imaging System (LI-COR).
(§4) The following antibodies were used in these studies: Anti-PDE6D antibody: Santa Cruz Biotechnology, sc-166854 (Dallas, Tex.); Anti-Ikaros: Abcam, ab191394 (Cambridge, Mass.); anti-CK1α antibody: Abcam, ab108296 (Cambridge, Mass.); β-Actin (8H10D10) mouse monoclonal antibody: Cell Signaling Technology, #3700 (Danvers, Mass.); IRDye 680RD Goat anti-rabbit antibody: LI-COR, 926-68071 (Lincoln, Nebr.); and IRDye 800CW Goat anti-mouse antibody: LI-COR, 926-32210 (Lincoln, Nebr.).
(§5) The % degradation values are reported as “A”, “B”, “C”, or “D.” “A” represents a % degradation value of less than 25% (value<25%); “B” represents a % degradation value of equal to or more than 25% and less than 50% (25%≤value<50%); “C” represents a % degradation value of equal to or more than 50% and less than 75% (50%≤value<75%); and “D” represents a % degradation value of equal to or more than 75% (value≥75%). […] was used as control.

[2] = tested on: IL-1β; assay: IL-1β inhibition, LPS-induced PBMCs or CD14+ monocytes, Meso Scale assay; type: cell-based; conditions: LPS 100 ng/mL 18-24 h, read-out: % Inhibition compared to DMSO, IL-1β; for inhibition at 1 µM: tested at 1 μM; for inhibition at 10 µM: tested at 10 μM
Protocol: (§6) Either frozen primary blood mononuclear cells (PBMCs) or frozen CD14+ mobilized peripheral blood monocytes were purchased from AllCells (PB003F, Normal Peripheral Blood MNC (Alameda, Calif.)). Cells were quick thawed, washed 1-time with RPMI-1640 (10% FBS/1% Pen-Strep) and plated in 96 well plates at 200,000 cells per well. Cells were pretreated with DMSO only or with the indicated compound for 1 h and then induced with 100 ng/mL lipopolysaccharide (LPS) for 18-24 h. The supernatant was analyzed for IL-1β, IL-6, and TNFα, using Meso Scale assay according to manufacturer's protocol. The negative control wells were treated with DMSO.
(§7) IL-1β, IL-6 and TNFα activities were tested at two different concentrations (1 μM and 10 μM) and the results are shown in Tables 2 and 3 respectively.

[3] = biological target: T2, CK1α (Homo sapiens, UniProt P48729+Q96SW2); assay: Western blot, degradation of cellular CK1α in MV-4-11 cells; type: cell-based; conditions: MV4-11, tested at 1 μM, 6-8 hours, read-out: % Degradation compared to DMSO, CK1α
T2 construct: endogenous in cells; host or cells: MV-4-11
T2 sequence (P48729 whole entry): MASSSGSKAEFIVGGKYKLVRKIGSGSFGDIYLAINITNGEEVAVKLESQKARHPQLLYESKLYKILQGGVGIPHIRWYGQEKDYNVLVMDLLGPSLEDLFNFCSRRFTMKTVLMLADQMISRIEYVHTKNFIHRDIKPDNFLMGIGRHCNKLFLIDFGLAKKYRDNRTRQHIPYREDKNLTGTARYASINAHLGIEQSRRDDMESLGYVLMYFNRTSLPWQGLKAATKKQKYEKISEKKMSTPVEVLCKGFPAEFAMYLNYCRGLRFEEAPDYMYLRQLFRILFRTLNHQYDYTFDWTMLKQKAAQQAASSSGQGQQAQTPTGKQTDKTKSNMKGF
T2 sequence (Q96SW2 whole entry): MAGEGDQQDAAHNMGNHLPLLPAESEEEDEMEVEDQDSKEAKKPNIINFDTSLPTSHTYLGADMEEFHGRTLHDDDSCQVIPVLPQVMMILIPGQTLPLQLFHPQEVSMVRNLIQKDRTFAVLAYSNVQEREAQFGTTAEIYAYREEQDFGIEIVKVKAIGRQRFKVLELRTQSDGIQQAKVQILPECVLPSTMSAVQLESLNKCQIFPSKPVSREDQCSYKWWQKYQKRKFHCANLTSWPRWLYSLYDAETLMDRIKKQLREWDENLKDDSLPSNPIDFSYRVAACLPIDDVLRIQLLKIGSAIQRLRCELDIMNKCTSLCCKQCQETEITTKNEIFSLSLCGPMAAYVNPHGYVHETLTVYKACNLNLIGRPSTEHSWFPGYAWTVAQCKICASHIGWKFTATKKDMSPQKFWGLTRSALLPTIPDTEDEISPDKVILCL
T2 sequence (Q16531 whole entry partner): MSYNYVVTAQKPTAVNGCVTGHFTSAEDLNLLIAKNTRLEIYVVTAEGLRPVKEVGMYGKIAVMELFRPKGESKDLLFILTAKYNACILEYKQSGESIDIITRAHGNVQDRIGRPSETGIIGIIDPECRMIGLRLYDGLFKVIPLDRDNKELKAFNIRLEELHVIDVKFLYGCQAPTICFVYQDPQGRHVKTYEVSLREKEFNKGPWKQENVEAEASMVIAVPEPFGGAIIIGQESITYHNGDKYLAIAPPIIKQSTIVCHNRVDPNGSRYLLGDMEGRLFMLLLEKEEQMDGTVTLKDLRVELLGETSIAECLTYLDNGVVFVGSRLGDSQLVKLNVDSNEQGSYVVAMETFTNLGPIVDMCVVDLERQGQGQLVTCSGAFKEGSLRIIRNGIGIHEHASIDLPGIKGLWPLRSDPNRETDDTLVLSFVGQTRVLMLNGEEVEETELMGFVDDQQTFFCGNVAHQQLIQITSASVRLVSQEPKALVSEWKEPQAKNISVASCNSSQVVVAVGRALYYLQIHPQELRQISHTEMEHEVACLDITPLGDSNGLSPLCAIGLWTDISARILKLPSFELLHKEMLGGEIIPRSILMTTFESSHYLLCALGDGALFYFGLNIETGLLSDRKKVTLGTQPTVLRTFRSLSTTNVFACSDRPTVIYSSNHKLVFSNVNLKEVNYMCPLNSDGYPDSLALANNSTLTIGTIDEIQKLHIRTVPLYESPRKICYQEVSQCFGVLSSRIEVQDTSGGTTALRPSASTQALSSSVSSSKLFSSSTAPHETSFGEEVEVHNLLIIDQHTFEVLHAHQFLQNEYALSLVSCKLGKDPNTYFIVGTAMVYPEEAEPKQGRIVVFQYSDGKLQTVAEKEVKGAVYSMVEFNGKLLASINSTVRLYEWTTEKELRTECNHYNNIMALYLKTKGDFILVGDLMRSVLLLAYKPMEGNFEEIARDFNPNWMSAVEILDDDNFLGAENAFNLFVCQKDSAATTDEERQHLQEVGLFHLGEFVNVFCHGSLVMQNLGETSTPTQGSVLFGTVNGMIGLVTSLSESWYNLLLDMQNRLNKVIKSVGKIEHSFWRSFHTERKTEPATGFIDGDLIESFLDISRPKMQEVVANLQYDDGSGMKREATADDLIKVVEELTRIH
Protocol: as §1, §2, §3, §4, §5

[4] = tested on: TNFα; assay: TNFα inhibition, LPS-induced PBMCs or CD14+ monocytes, Meso Scale assay; type: cell-based; conditions: LPS 100 ng/mL 18-24 h, read-out: % Inhibition compared to DMSO, TNFα; for inhibition at 1 µM: tested at 1 μM; for inhibition at 10 µM: tested at 10 μM
Protocol: as §6, §7

[5] = tested on: IL-2; assay: IL-2 inhibition assay, anti-CD3 (OKT3) stimulated PBMCs, Mesoscale IL-2 analysis; type: cell-based, human; conditions: Homo sapiens, PBMC, PBMCs on anti-CD3, 24 h, fold difference from DMSO control, read-out: IL-2, % Induction compared to DMSO
Protocol: For the IL-2 analysis, 96 well plates were precoated with 1 μg/mL anti-human CD3 antibody (OKT3, eBioscience Inc., San Diego, Calif.). After washing with PBS, the indicated compound was added (50 μL/well) followed by PBMCs diluted at 3-4 million cells/mL (150 μL/well). Plates were incubated for 24 h and the supernatants collected for Mesoscale IL-2 analysis. IL-2 activity is measured as fold difference from the DMSO control. […]
In Table 4, the fold-change values are reported as “A”, “B”, “C”, or “D”. “A” represents a fold-change value of equal to or less than 0.5 (value≤0.5); “B” represents a fold-change value of more than 0.5 and equal to or less than 1 (0.5<value≤1); “C” represents a fold-change value of more than 1 and less than 1.5 (1<value<1.5); and “D” represents a fold-change value of equal to or more than 1.5 (value≥1.5).

[6] = tested on: IL-6; assay: IL-6 inhibition, LPS-induced PBMCs or CD14+ monocytes, Meso Scale assay; type: cell-based; conditions: LPS 100 ng/mL 18-24 h, read-out: % Inhibition compared to DMSO, IL-6; for inhibition at 1 µM: tested at 1 μM; for inhibition at 10 µM: tested at 10 μM
Protocol: as §6, §7

[7] = biological target: T3, PDE6D (Homo sapiens, UniProt O43924+Q96SW2); assay: Western blot, degradation of cellular PDE6D in MV-4-11 cells; type: cell-based; conditions: MV4-11; tested at 1 μM, MV-4-11 cells, 6-8 hours; read-out: % Degradation compared to DMSO, PDE6D
T3 construct: endogenous in cells; host or cells: MV-4-11
T3 sequence (O43924 whole entry): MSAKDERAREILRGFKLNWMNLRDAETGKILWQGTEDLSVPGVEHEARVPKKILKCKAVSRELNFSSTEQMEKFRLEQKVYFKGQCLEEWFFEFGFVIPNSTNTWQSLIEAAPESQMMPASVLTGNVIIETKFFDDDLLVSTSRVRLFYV
T3 sequence (Q96SW2 whole entry): as the sequence (Q96SW2 whole entry) above
T3 sequence (Q16531 whole entry partner): as the sequence (Q16531 whole entry partner) above
Protocol: as §1, §2, §3, §4, §5

T1 sequence (Q13422 whole entry): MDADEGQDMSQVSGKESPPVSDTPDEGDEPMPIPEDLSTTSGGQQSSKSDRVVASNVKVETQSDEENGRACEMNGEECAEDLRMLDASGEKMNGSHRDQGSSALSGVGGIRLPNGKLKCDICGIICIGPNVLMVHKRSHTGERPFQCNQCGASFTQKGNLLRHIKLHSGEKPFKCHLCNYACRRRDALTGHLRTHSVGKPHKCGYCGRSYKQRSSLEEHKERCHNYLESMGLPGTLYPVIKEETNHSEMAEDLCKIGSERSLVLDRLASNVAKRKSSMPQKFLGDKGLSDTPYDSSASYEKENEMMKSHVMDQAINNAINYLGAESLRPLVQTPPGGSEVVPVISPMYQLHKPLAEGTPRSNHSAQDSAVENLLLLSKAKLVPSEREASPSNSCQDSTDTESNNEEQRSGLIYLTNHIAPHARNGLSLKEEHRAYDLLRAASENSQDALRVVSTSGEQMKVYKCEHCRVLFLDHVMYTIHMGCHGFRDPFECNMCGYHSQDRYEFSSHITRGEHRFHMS
T1 sequence (Q96SW2 whole entry): as the sequence (Q96SW2 whole entry) above
T1 sequence (Q16531 whole entry partner): as the sequence (Q16531 whole entry partner) above

SMILES	Dmax at 1 µM [1]	Dmax at 1 µM [3]	Dmax at 1 µM [7]	inhibition at 1 µM [2]	inhibition at 10 µM [2]	inhibition at 1 µM [4]	inhibition at 10 µM [4]	fold induction at 1 µM [5]	fold induction at 10 µM [5]	inhibition at 1 µM [6]	inhibition at 10 µM [6]
O=C1CCC(N2Cc3c(cc(F)cc3C3CC4CCC3C4)C2=O)C(=O)N1 (stereo not shown) [Compound 25]	25 to 50%	25 to 50%	50 to 75%	< 10%	25 to 50%	10 to 25%	10 to 25%	1 to 1.5	0.5 to 1	< 10%	< 10%
CC1(C)CCCC1c1cc(F)cc2c1CN(C1CCC(=O)NC1=O)C2=O (stereo not shown) [Compound 26]	25 to 50%	< 25%	50 to 75%	< 10%	< 10%	< 10%	10 to 25%	0.5 to 1	0.5 to 1	< 10%	< 10%
O=C1CCC(N2Cc3c(C4CCCC4)ccc(F)c3C2=O)C(=O)N1 (stereo not shown) [Compound 27]	< 25%	< 25%	< 25%	< 10%	< 10%	10 to 25%	25 to 50%	0.5 to 1	0.5 to 1	10 to 25%	< 10%
O=C1CCC(N2Cc3c(cc(Cl)cc3C3CCCC3)C2=O)C(=O)N1 (stereo not shown) [Compound 28]	< 25%	< 25%	< 25%	< 10%	< 10%	10 to 25%	10 to 25%	1 to 1.5	0.5 to 1	< 10%	10 to 25%
O=C1CCC(N2Cc3c(cc(C(F)(F)F)cc3C3CCCC3)C2=O)C(=O)N1 (stereo not shown) [Compound 29]	25 to 50%	< 25%	< 25%	< 10%	< 10%	< 10%	10 to 25%	0.5 to 1	0.5 to 1	10 to 25%	< 10%

Second part, led by results:

Dmax at 1 µM [1]	Dmax at 1 µM [3]	Dmax at 1 µM [7]	SMILES	inhibition at 1 µM [2]	inhibition at 10 µM [2]	inhibition at 1 µM [4]	inhibition at 10 µM [4]	fold induction at 1 µM [5]	fold induction at 10 µM [5]	inhibition at 1 µM [6]	inhibition at 10 µM [6]
25 to 50%	< 25%	< 25%	C[C@@H](c1cccc2c1CN(C1CCC(=O)NC1=O)C2=O)C(F)(F)F (stereo partly shown) [Compound 30]	< 10%	< 10%	< 10%	10 to 25%	1 to 1.5	0.5 to 1	< 10%	< 10%
50 to 75%	25 to 50%	< 25%	C[C@H](c1cccc2c1CN(C1CCC(=O)NC1=O)C2=O)C(F)(F)F (stereo partly shown) [Compound 31]	< 10%	< 10%	< 10%	10 to 25%	0.5 to 1	0.5 to 1	< 10%	< 10%
< 25%	≥ 75%	≥ 75%	CCC(C)c1cc(F)cc2c1CN(C1CCC(=O)NC1=O)C2=O (stereo not shown) [Compound 33, 3-(4-(sec-butyl)-6-fluoro-1-oxoisoindolin-2-yl)piperidine-2,6-dione]	< 10%	–	25 to 50%	–	≤ 0.5	–	< 10%	–
< 25%	50 to 75%	≥ 75%	CC(C)c1cc(F)cc2c1CN(C1CCC(=O)NC1=O)C2=O (stereo not shown) [Compound 34, 3-(6-fluoro-4-isopropyl-1-oxoisoindolin-2-yl)piperidine-2,6-dione]	< 10%	–	25 to 50%	–	≤ 0.5	–	< 10%	–
